Active and inactive are the calls of the source. The rule behind the calls is not given here.
Key:
DU-145 [1] = experiment: Cytotoxicity against human DU-145 cells assessed as reduction in cell viability at 10 uM incubated for 24 hrs by CCK8 assay relative to control; type: functional
DU-145 [2] = experiment: Cytotoxicity against human DU-145 cells assessed as reduction in cell viability after 24 hrs by CCK8 assay; type: functional, cell-based; conditions: DU-145, 24 h
DU-145 [3] = experiment: Inhibition of colony formation in human DU-145 cells at 12 to 24 uM incubated for 2 weeks with media replacement for every 3 days by crystal violet staining based microscopic analysis; type: functional, cell-based; conditions: dose microM 12-24, time 2.0 weeks
DU-145 [4] = experiment: Inhibition of cell migration in human DU-145 cells at 12 to 24 uM incubated for 24 hrs by wound healing assay; type: functional, cell-based; conditions: dose microM 12-24, time 24.0 hrs
DU-145 [5] = experiment: Antiinvasive activity against human DU-145 cells assessed as inhibition of cell migration at 12 to 24 uM incubated for 20 hrs by Boyden chamber assay; type: functional, cell-based; conditions: dose microM 12-24, time 20.0 hrs
DU-145 [6] = experiment: Inhibition of metastasis in human DU-145 cells assessed as reduction in MMP2 expression incubated for 48 hrs by Western blot analysis; type: functional, cell-based; conditions: dose microM 12-24, time 48.0 hrs
DU-145 [7] = experiment: Inhibition of metastasis in human DU-145 cells assessed as reduction in MMP9 expression incubated for 48 hrs by Western blot analysis; type: functional, cell-based; conditions: dose microM 12-24, time 48.0 hrs
DU-145 [8] = experiment: Inhibition of metastasis in human DU-145 cells assessed as reduction in MMP2 mRNA expression at 12 to 24 uM incubated for 48 hrs by qRT-PCR analysis; type: functional, cell-based; conditions: dose microM 12-24, time 48.0 hrs
DU-145 [9] = experiment: Inhibition of metastasis in human DU-145 cells assessed as reduction in MMP9 mRNA expression at 12 to 24 uM incubated for 48 hrs by qRT-PCR analysis; type: functional, cell-based; conditions: dose microM 12-24, time 48.0 hrs
DU-145 [10] = experiment: Modulatory activity of MAPK signaling pathway in human DU-145 cells assessed as reduction in ERK phosphorylation incubated for 24 hrs by Western blot analysis; type: cell-based; conditions: filed as modulator, dose microM 12-24, time 24.0 hrs
DU-145 [11] = experiment: Modulatory activity of MAPK signaling pathway in human DU-145 cells assessed as increase in JNK activation at 12 to 24 uM incubated for 24 hrs by Western blot analysis; type: cell-based; conditions: filed as modulator, dose microM 12-24, time 24.0 hrs
DU-145 [12] = experiment: Modulatory activity of MAPK signaling pathway in human DU-145 cells assessed as increase in p38 activation at 12 to 24 uM incubated for 24 hrs by Western blot analysis; type: cell-based; conditions: filed as modulator, dose microM 12-24, time 24.0 hrs
DU-145 [13] = experiment: Modulatory activity of MAPK signaling pathway in human DU-145 cells assessed as reduction in c-MYC expression at 12 to 24 uM incubated for 24 hrs by Western blot analysis; type: cell-based; conditions: filed as modulator, dose microM 12-24, time 24.0 hrs
DU-145 [14] = experiment: Modulatory activity of MAPK signaling pathway in human DU-145 cells assessed as beta-catenine expression at 12 to 24 uM incubated for 24 hrs by Western blot analysis; type: cell-based; conditions: dose microM 12-24, time 24.0 hrs
DU-145 [15] = experiment: Modulatory activity of MAPK signaling pathway in human DU-145 cells assessed as NFkappaB expression at 12 to 24 uM incubated for 24 hrs by Western blot analysis; type: cell-based; conditions: dose microM 12-24, time 24.0 hrs
DU-145 [16] = experiment: Modulatory activity of MAPK signaling pathway in human DU-145 cells assessed as EST-1 expression at 12 to 24 uM incubated for 24 hrs by Western blot analysis; type: cell-based; conditions: dose microM 12-24, time 24.0 hrs
PC-3 [17] = experiment: Cytotoxicity against human PC-3 cells assessed as reduction in cell viability at 40 uM incubated for 24 hrs by CCK8 assay relative to control; type: functional
PC-3 [18] = experiment: Inhibition of colony formation in human PC-3 cells incubated for 2 weeks with media replacement for every 3 days by crystal violet staining based microscopic analysis; type: functional, cell-based; conditions: dose microM 12-24, time 2.0 weeks
PC-3 [19] = experiment: Inhibition of cell migration in human PC-3 cells at 12 to 24 uM incubated for 24 hrs by wound healing assay; type: functional, cell-based; conditions: dose microM 12-24, time 24.0 hrs
PC-3 [20] = experiment: Inhibition of metastasis in human PC-3 cells assessed as reduction in MMP2 expression at 12 to 24 uM incubated for 48 hrs by Western blot analysis; type: functional, cell-based; conditions: dose microM 12-24, time 48.0 hrs
PC-3 [21] = experiment: Inhibition of metastasis in human PC-3 cells assessed as reduction in MMP9 expression at 12 to 24 uM incubated for 48 hrs by Western blot analysis; type: functional, cell-based; conditions: dose microM 12-24, time 48.0 hrs
PC-3 [22] = experiment: Modulatory activity of MAPK signaling pathway in human PC-3 cells assessed as reduction in ERK phosphorylation incubated for 24 hrs by Western blot analysis; type: cell-based; conditions: filed as modulator, dose microM 12-24, time 24.0 hrs
PC-3 [23] = experiment: Modulatory activity of MAPK signaling pathway in human PC-3 cells assessed as increase in JNK phosphorylation at 12 to 24 uM incubated for 24 hrs by Western blot analysis; type: cell-based; conditions: filed as modulator, dose microM 12-24, time 24.0 hrs
PC-3 [24] = experiment: Modulatory activity of MAPK signaling pathway in human PC-3 cells assessed as increase in p38 phosphorylation at 12 to 24 uM incubated for 24 hrs by Western blot analysis; type: cell-based; conditions: dose microM 12-24, time 24.0 hrs
PC-3 [25] = experiment: Modulatory activity of MAPK signaling pathway in human PC-3 cells assessed as reduction in c-MYC expression at 12 to 24 uM incubated for 24 hrs by Western blot analysis; type: cell-based; conditions: filed as modulator, dose microM 12-24, time 24.0 hrs
PC-3 [26] = experiment: Modulatory activity of MAPK signaling pathway in human PC-3 cells assessed as beta-catenine expression at 12 to 24 uM incubated for 24 hrs by Western blot analysis; type: cell-based; conditions: dose microM 12-24, time 24.0 hrs
PC-3 [27] = experiment: Modulatory activity of MAPK signaling pathway in human PC-3 cells assessed as NFkappaB expression at 12 to 24 uM incubated for 24 hrs by Western blot analysis; type: cell-based; conditions: dose microM 12-24, time 24.0 hrs
PC-3 [28] = experiment: Modulatory activity of MAPK signaling pathway in human PC-3 cells assessed as EST-1 expression at 12 to 24 uM incubated for 24 hrs by Western blot analysis; type: cell-based; conditions: dose microM 12-24, time 24.0 hrs

For `COc1cc(C2CC(=O)Nc3cc(C)c(C)cc32)cc(OC)c1OC` (stereo not drawn), the Activity (DU-145 [1]) was 70%, the IC50 (DU-145 [2]) was greater than 200 µM and the inhibition (DU-145 [3]) was “Active”. For the same molecule, the inhibition (DU-145 [4]) was “Active”, the inhibition (DU-145 [5]) was “Active” and the inhibition (DU-145 [6]) was “Dose-dependent effect”. The inhibition (DU-145 [7]) was “Dose-dependent effect”, the inhibition (DU-145 [8]) was “Active” and the inhibition (DU-145 [9]) was “Active”. For the same molecule, the Activity (DU-145 [10]) was “Dose-dependent effect”, the Activity (DU-145 [11]) was “Active” and the Activity (DU-145 [12]) was “Active”. For the same molecule, the Activity (DU-145 [13]) was “Active”, the Activity (DU-145 [14]) was “inactive” and the Activity (DU-145 [15]) was “inactive”. For the same molecule, the Activity (DU-145 [16]) was “inactive”, the Activity (PC-3 [17]) was 20% and the inhibition (PC-3 [18]) was “Dose-dependent effect”. For the same molecule, the inhibition (PC-3 [19]) was “Active”, the inhibition (PC-3 [20]) was “Active” and the inhibition (PC-3 [21]) was “inactive”. For the same molecule, the Activity (PC-3 [22]) was “Active”, the Activity (PC-3 [23]) was “Active” and the Activity (PC-3 [24]) was “inactive”. The Activity (PC-3 [25]) was “Active”, the Activity (PC-3 [26]) was “inactive” and the Activity (PC-3 [27]) was “inactive”. The Activity (PC-3 [28]) was “inactive”.

From ChEMBL document CHEMBL4725235, “Small molecule DTDQ exerts anti-metastatic effects in DU145 human castration-resistant prostate cancer cells via modulations of ERK, JNK, p38 and c-Myc signaling pathways” (Bioorg Med Chem Lett, 2020)
